Values of other authors as cited in patent US20160213008A1, “ULTRASONIC MICRO-DROPLET RELEASE OF MATRIX BOUND FOOD DERIVED ANTIMICROBIALS” (priority 2015, published 2016).

Settings: Cavallito and colleagues 1944

SMILES | antibacterial and antifungal / antimicrobial activity
C=CCS[S+]([O-])CC=C (centres unmarked) [allicin] | attributable
C=CCSSC=CC[S+]([O-])CC=C (mixture of isomers) [Ajoene] | shows antimicrobial properties
